Results taken from US20220304992A1, “METHODS OF REJUVENATING AGED TISSUE BY INHIBITING 15-HYDROXYPROSTAGLANDIN DEHYDROGENASE (15-PGDH)” (The Board of Trustees of the Leland Stanford Junior …, priority 2019, published 2022).
“Also recorded” adds a separate entry of the source.

Test system: PGE2 and PGD2 levels in muscle tissue
Assay: LC-MS/MS of prostaglandins in muscle tissue lysates
Assay type: in vivo, mouse
Details: aged mice, daily i.p., 1 month
Description: All prostaglandin standards-PGF2a; PGE2; PGD2; 15-keto PGE2; 13,14-dihydro 15-keto PGE2; PGE2-D4; and PGF2α-D9—were purchased from Cayman Chemical. For the PGE2-D4 internal standard, positions 3 and 4 were labeled with a total of four deuterium atoms. For PGF2α-D9, positions 17, 18, 19 and 20 were labeled with a total of nine deuterium atoms.
Analyte stock solutions (5 mg/mL) were prepared in DMSO. These stock solutions were serially diluted with acetonitrile/water (1:1 v/v) to obtain a series of standard working solutions, which were used to generate the calibration curve. […]
Solid tissues were harvested, weighed, and snap-frozen with liquid nitrogen. […] The dry residue was reconstituted in 100 μL acetonitrile/10 mM ammonium acetate (2:8 v/v) and analyzed by LC-MS/MS.
Since many prostaglandins are positional isomers with identical masses and have similar fragmentation patterns, chromatographic separation is critical. Two SRM transitions-one quantifier and one qualifier-were carefully selected for each analyte. […]
Quantitative analysis was done using LabSolutions LCMS (Shimadzu). An internal standard method was used for quantification: PGE2-D4 was used as an internal standard for quantification of PGE2, 15-keto PGE2, and 13, 14-dihydro 15-keto PGE2. […]

CCCC[S+]([O-])c1sc2nc(-c3cccs3)cc(-c3ccccc3)c2c1N (centres unmarked) [SW033291, 2-(butylsulfinyl)-4-phenyl-6-(thiophen-2-yl)thieno[2,3-b]pyridin-3-amine]
PGD2 levels in muscle: increase | PGE2 levels in muscle (listed as SW): elevated; also recorded: increase
